The values below come from patent publication US20220127297A1, “Novel Antibacterial 3"-Derivatives Of 4,6-Disubstituted 2,5-Dideoxystreptamine Aminoglycoside Antibiotics” (AGILeBiotics B.V., priority 2018, published 2022).

In brackets after ≈: the same amount, converted by molar mass.

The test system of one assay is E. coli (AAC(3)III). The assay can be described thus: MIC 50, broth micro-dilution, E. coli expressing AAC(3)III. The class given is cell-based, Escherichia coli. To be noted: Escherichia coli, ATCC25922, ATCC25922 harboring plasmid encoding AAC(3)III. The source says: Cloning resistant enzymes. An Escherichia coli codon optimized gene encoding AAC(3)-III (GenBank acc.nr. X55652.1; SEQ ID NO:1), including a promoter and terminator sequence, was synthesized by Integrated DNA Technologies, Belgium. The synthesized gene and pBluescript II KS(+) plasmid were digested using the restriction enzymes SacI and SalI, and purified from a 1% TBE-agarose gel using the illustra Gel Band purification kit. The purified linear plasmid and T4 DNA ligase were used to ligate aac(3)-III under control of the constitutive lipoprotein Ipp promoter and ribosomal RNA rrnC terminator, resulting in pBlue_Ipp_aacC3_rrnC.
(§1) Plasmid transformation. Approximately 500 ng of the pET-9b(+) (Cat. No. 69432-3, Merck), pAT21-1 (provided by Prof. Dr. Patrice Courvalin, M.D., Pasteur Institute, France; prepared according to Trieu-Cuot et. al, Mol. Gen. Genet. 198(2), 348 (1985)), pBluescript::AAC(6′)-Ie/APH(2″)-Ia (provided by Prof. Dr. Sergei Vakulenko, M.D., University of Notre Dame, Ind., USA; prepared according to S. B. Vakulenko et. al., J. Biol. Chem. 287 (52), 43262 (2012)), pBlue_lpp_aacC3_rrnC and pSET152 (Cat. No. PVT3395, Life Science Market; prepared according to Bierman et al., Gene 116 (1), 43 (1992)) plasmids, encoding APH(3′)-Ia (SEQ ID NO:2), APH(3′)-IIIa (SEQ ID NO:3), AAC(6′)Ie-APH(2″)-Ia (SEQ ID NO:4), AAC(3)-III (SEQ ID NO:1), and AAC(3)-IV (SEQ ID NO:5) respectively, were individually incubated in a vial of competent cells for 15 min on ice. The cells were subsequently heated to 42° C. for 90 s, and cooled on ice for 1 min. After addition of 900 μL LB, the cells were incubated for 1 h at 37° C. and 200 rpm. Cells were plated on LB-agar supplemented with 50 μg/mL KanaA and incubated for 18 h at 37° C. The next day, a single colony was inoculated in 5 mL LB supplemented with 50 μg/mL and grown for 18 h at 37° C. and 200 rpm. A 200 μL sample of each culture was diluted with 200 μL of 40% v/v glycerol in water, and stored at −80° C. The plasmid was purified from the remaining culture using the Plasmid Miniprep kit. Plasmid DNA was investigated by Eurofins Genomics (Germany) to confirm the identity of the aminoglycoside resistance genes.
(§2) 3.1 Against E. coli Strains
(§3) Tested reference compounds. Amikacin sulfate (Cat. No. 01693, Chem-Impex), Gentamicin sulfate (Cat. No. G4918, Sigma Aldrich).
(§4) Microbial strains. E. coli ATCC 25922, E. coli ATCC 25922/pET-9b(+), E. coli ATCC 25922/pAT21-1, E. coli ATCC 25922/pBluescript::AAC(6′)-Ie/APH(2″)-Ia, E. coli ATCC 25922/pBlue_lpp_aacC3_rrnC, E. coli ATCC 25922/pSET152.
(§5) Culture media and equipment. BBL™ Mueller Hinton Broth 2 (Lot. BCBW1143, Cat. No. 70192, Sigma); Kanamycin A (Cat. No. A1493, AppliChem); 96-well deep well plate, 1 mL (Cat. No. 0030506.200, Eppendorf); Plate lids (Cat. No. 0030131.525, Eppendorf); 96-well plate, F-bottom (Cat. No. 781602, Brand; Incubator, Infors Multitron Pro); Laminar flow (Heraeus KS12); UV/VIS meter (Eppendorf BioPhotometer Plus); Platereader (Tecan Sunrise).
(§6) Compound preparation. Compounds were prepared in MH2 media at a concentration of 5 mM and stored at 4° C. For testing, solutions of 128 μM were prepared in MH2. Out of these working solutions, 400 μL was transferred to wells in the first column of 96-well deep well plates. Each compound was transferred in triplicate. Plates were previously filled with 200 μL of MH2 media in all wells except for the wells in the first column. After compound and antibiotic addition, the compounds were serial two-fold diluted by transferring 200 μL from the first to the second column, then from the second to the third column and so on. Finally, 200 μL was removed from the last column.
Inoculum preparation. Microorganisms used were all revived from 20% glycerol (40% v/v glycerol in water was diluted with MH2) storage at −80° C. by inoculating them in 5 mL MH2. inoculums of E. coli containing a plasmid were selected for by adding 50 μg/mL KanaA.

For assay [1], the system named is E. coli (AAC(6′)Ie-APH(2″)Ia). The assay can be described thus: MIC 50, broth micro-dilution, E. coli expressing AAC(6′)Ie-APH(2″)Ia. It is filed as cell-based, Escherichia coli. To be noted: Escherichia coli, ATCC25922, ATCC25922 harboring plasmid encoding AAC(6′)Ie-APH(2″)Ia. The method, then: as §1, §2, §3, §4, §5, §6
(§7) Inoculum preparation. Microorganisms used were all revived from 20% glycerol (40% v/v glycerol in water was diluted with MH2) storage at −80° C. by inoculating them in 5 mL MH2. inoculums of E. coli containing a plasmid were selected for by adding 50 μg/mL KanaA. The Inoculums were grown to an optical density (measured by UV/Vis spectroscopy) of 0.6-0.8 at 600 nm. Out of these suspensions, actual inoculums were prepared by diluting them to an optical density (OD) of 0.1 in MH2 media. From these inoculums, 200 μL was transferred to each well, resulting in a final compound concentration range of 64 μM-31.3 nM. All plates were incubated at 900 rpm and 70% rH for 18 h at 37° C.
(§8) MIC determination. After 18 h of growth, 200 μL was transferred to a 96-well F-bottom plate. The optical density was determined by a plate reader at 600 nm, with 10 s shaking before reading. Triplicate measurements were averaged, and a growth curve was plotted in Microsoft Excel. […]

A further assay relates to E. coli (AAC(3)IV). The assay can be described thus: MIC 50, broth micro-dilution, E. coli expressing AAC(3)IV. To be noted: Escherichia coli, ATCC25922, ATCC25922 harboring plasmid encoding AAC(3)IV. It is filed as cell-based, Escherichia coli. The procedure:
as §1, §2, §3, §4, §5, §6, §7, §8

The test system of the next assay is E. coli ATCC25922 strain. Briefly: MIC 50, broth micro-dilution, wild-type Escherichia coli. To be noted: Escherichia coli, ATCC25922, 18 h, MH2, 18 h. It is filed as cell-based.
Excerpt: as §2, §3, §4, §5, §6, §7
MIC determination. After 18 h of growth, 200 μL was transferred to a 96-well F-bottom plate. The optical density was determined by a plate reader at 600 nm, with 10 s shaking before reading. Triplicate measurements were averaged, and a growth curve was plotted in Microsoft Excel. The first column in which the growth reached half the value of maximum growth was determined as the MIC50 value for that particular compound.
MIC50. The MIC50 of a compound was assigned at which the bacterial growth reached half the value of maximum growth.

Another assay relates to E. coli (APH(3′)IIIa). Briefly: MIC 50, broth micro-dilution, E. coli expressing APH(3′)IIIa. The class given is cell-based, Escherichia coli. To be noted: Escherichia coli, ATCC25922, ATCC25922 harboring plasmid encoding APH(3′)IIIa. The procedure: as §1, §2, §3, §4, §5, §6, §7, §8
A further assay has as its system E. coli (APH(3′)Ia). Briefly: MIC 50, broth micro-dilution, E. coli expressing APH(3′)Ia. The class given is cell-based, Escherichia coli. To be noted: Escherichia coli, ATCC25922, ATCC25922 harboring plasmid encoding APH(3′)Ia. The method, then: as §1, §2, §3, §4, §5, §6, §7, §8

Regarding `N=C(N)NC1[C@@H](O)C(OC2[C@@H](F)[C@H](O[C@H]3OC(CN)[C@@H](O)CC3N)C(N)C[C@H]2NC(=O)[C@@H](F)CCN)O[C@H](CO)[C@H]1O` (stereo partly drawn) [ABX5034, Tobra-(AFB)-F-Gua], the MIC50 in the assay with E. coli (AAC(3)III) is 0.5 to 1 µM (≈ 0.307 to 0.615 µg/mL); in assay [1], 1 µM (≈ 0.615 µg/mL); against E. coli (AAC(3)IV), 2 to 4 µM (≈ 1.23 to 2.46 µg/mL); against E. coli ATCC25922 strain it was 1 µM (≈ 0.615 µg/mL); against E. coli (APH(3′)IIIa), 0.5 to 1 µM (≈ 0.307 to 0.615 µg/mL); against E. coli (APH(3′)Ia), 1 µM (≈ 0.615 µg/mL).
